Laboratory results from patent US8722088B2, “Pharmaceutical compositions and methods for the treatment of prostate cancer” (Ferring International Center S.A., priority 2009, dated 2014).
Entries after “also recorded” stand apart in the source; their conditions may differ. Where a SMILES comes first, the peptide text is derived from it. [ ]: non-standard residue; d: D form. The star is where a group is joined. dPhe(4-NHCONH2) = NC(=O)Nc1ccc(C[C@@H](N)C(=O)O)cc1; Dihydroorotyl(S) = O=C1C[C@@H](C(=O)*)NC(=O)N1; dPhe(4-Cl) = N[C@H](Cc1ccc(Cl)cc1)C(=O)O; Phe(4-NH2) = Nc1ccc(C[C@H](N)C(=O)O)cc1; d2Nal = N[C@H](Cc1ccc2ccccc2c1)C(=O)O; Lys(iPr) = CC(C)NCCCC[C@H](N)C(=O)O; d3Pal = N[C@H](Cc1cccnc1)C(=O)O

Legend:
clinical = conditions: human, in vivo
Description: Throughout the ongoing degarelix development program, population pharmacokinetic/pharmacodynamic (PK/PD) modeling and simulations have been employed to get a better understanding of the PK and PD data, and the relationship between these and other parameters. […] Because of the variability in the population, it was considered that this median plasma concentration might not be sufficient to maintain long-term testosterone suppression in approximately 95% of the patients. It was therefore proposed that the dose administered should produce mean serum trough degarelix levels of >9 ng/ml or higher in the Phase 3 studies for the one-month dosing regimen program.

serum testosterone [1] = assay: One-month dosing regimen clinical program: testosterone suppression to castrate level; assay type: in vivo, human; conditions: for testosterone response rate: Day 28 to Day 364
Protocol: Other studies establish that degarelix or pharmaceutically acceptable salt thereof at a dose of 240 mg (40 mg/mL) is an effective starting dose. […] With dosing at 0 months and an additional dosage at 1 month, it is believed that a steady state level is reached faster and this is (together with formulation, dose and concentration) a factor for consideration to obtain and maintain therapeutic levels in the patient. Use of a higher dose as the starting dose to have a ‘true’ 3 month depot is not feasible because of the combined requirements of a sufficient starting/loading phase release to allow buildup of degarelix plasma concentration; and at the same time sufficient long term release to achieve sufficiently high steady state concentration for 3 months. […] This is surprising given the high doses (and concentrations) of degarelix in the defined maintenance dose(s).

serum testosterone [2] = assay: Clinical trial CS18 (Phase 2, three-month dosing regimen): serum testosterone ≦0.5 ng/mL; assay type: in vivo, human; conditions: for cumulative probability of testosterone ≦0.5 ng/mL, Kaplan-Meier estimate / number of patients with testosterone > 0.5 ng/mL: Day 28 to Day 364; for cumulative probability of testosterone ≦0.5 ng/mL, Kaplan-Meier estimate / proportion of patients with testosterone ≦0.5 ng/mL: ITT
Protocol: The present study included a starting degarelix dose of 240 mg (with a concentration of 40 mg/mL of solvent), followed by maintenance doses of degarelix: i.e., 360 mg (with a concentration of 60 mg/mL of solvent) or 480 mg (with a concentration of 60 mg/mL of solvent), the latter administered at Months 1, 4, 7, and 10.
The study was open labeled and patients received a starting dose of 240 mg (with a concentration of 40 mg/mL of solvent) at Month 0 followed by one of two degarelix maintenance dose treatment regimens: 360 mg (with a concentration of 60 mg/mL of solvent) at Months 1, 4, 7, and 10; or 480 mg (with a concentration of 60 mg/mL of solvent) at Months 1, 4, 7, and 10.
The starting dose was administered subcutaneously as two injections of 120 mg (with a concentration of 40 mg/ml of solvent, given as 2×3 mL injections). After 28 days a maintenance dose of 360 mg (with a concentration of 60 mg/mL, given as 2×3 mL injections) or 480 mg (with a concentration of 60 mg/mL, given as 2×4 mL injections) was administered, also in two injections (each of 240 mg). Thereafter, with three monthly intervals, maintenance doses were given, again in the form of two injections. […] At each visit, serum testosterone, prostate specific androgen (PSA), and plasma concentration of degarelix were measured by techniques well known in the art.

PSA = assay: Clinical trial CS18: PSA change from baseline; assay type: in vivo, human; conditions: 360/60 mg
Protocol: PSA is a commonly used marker in the diagnosis of prostate cancer and has more recently also been used to monitor response to treatment as well as disease recurrence and progression (Fleming et al. (2006) Nat. Clin. Pract. Oncol. 3: 658-68; Lilja, et al. (2008) Nat. Rev. Cancer 8: 268-78). In general, higher levels of PSA are associated with more severe forms of prostate cancer, with metastatic stage prostate cancer being associated with the highest level of PSA (e.g., >50 ng/mL). Accordingly, rising PSA levels in patients undergoing prostate cancer treatment are associated with incomplete or failed efficacy of the treatment. Here, there were further reductions in PSA after Month 1 and the median reductions were sustained throughout the study period (median reductions of 96-97%).

## CC(=O)N[C@H](Cc1ccc2ccccc2c1)C(=O)N[C@H](Cc1ccc(Cl)cc1)C(=O)N[C@H](Cc1cccnc1)C(=O)N[C@@H](CO)C(=O)N[C@@H](Cc1ccc(NC(=O)[C@@H]2CC(=O)NC(=O)N2)cc1)C(=O)N[C@H](Cc1ccc(NC(N)=O)cc1)C(=O)N[C@@H](CC(C)C)C(=O)N[C@@H](CCCCNC(C)C)C(=O)N1CCC[C@H]1C(=O)N[C@H](C)C(N)=O [Degarelix, D-Alaninamide, N-acetyl-3-(2-naphthalenyl)-D-alanyl-4-chloro-D-phenylalanyl-3-(3-pyridinyl)-D-alanyl-L-seryl-4-[[[(4S)-hexahydro-2,6-dioxo-4-pyrimidinyl]carbonyl]amino]-L-phenylalanyl-4-[(aminocarbonyl)amino]-D-phenylalanyl-L leucyl-N6-(1-methylethyl)-L-lysyl-L-prolyl] (Ac-[d2Nal][dPhe(4-Cl)][d3Pal]S[Phe(4-NH2)](Dihydroorotyl(S))[dPhe(4-NHCONH2)]L[Lys(iPr)]P[dA]-NH2)
clinical
  level at 672 h: 7.34 ng/mL
  level at 2016 h: 4.54 ng/mL
Serum testosterone [1]; doses of 240 mg, 160 mg or 80 mg
  sustained testosterone suppression for 3 months following an injection: failed to sustain testosterone suppression for 3 months; also recorded: none of the doses tested in the one-month dosing regimen program could sustain testosterone suppression for 3 months
Serum testosterone [1]; monthly maintenance 80 mg (20 mg/mL)
  testosterone response rate: 98%
Serum testosterone [1]; monthly maintenance 160 mg (40 mg/mL)
  testosterone response rate: 100%
Serum testosterone [1]; starting dose 240 mg (40 mg/mL), first 28 days
  patients with testosterone suppressed to castrate level (T≦0.5 ng/mL): 95%
Serum testosterone [2]; 360 mg (60 mg/mL) maintenance Months 1,4,7,10 after 240 mg start
  cumulative probability of testosterone ≦0.5 ng/mL, Kaplan-Meier estimate: 89.0%
Serum testosterone [2]; 360 mg (60 mg/mL) maintenance Months 1,4,7,10 after 240 mg start, listed as degarelix
  cumulative probability of testosterone ≦0.5 ng/mL, Kaplan-Meier estimate: 89.0%
Serum testosterone [2]; 360 mg (60 mg/mL) maintenance dose
  patients with sustained testosterone suppression over the course of the observed time period: at least 90%
Serum testosterone [2]; 480 mg (60 mg/mL) maintenance Months 1,4,7,10 after 240 mg start
  cumulative probability of testosterone ≦0.5 ng/mL, Kaplan-Meier estimate: 93.3%
Serum testosterone [2]; 480 mg (60 mg/mL) maintenance Months 1,4,7,10 after 240 mg start, listed as degarelix
  cumulative probability of testosterone ≦0.5 ng/mL, Kaplan-Meier estimate: 93.3%
Serum testosterone [2]; 480 mg (60 mg/mL) maintenance dose
  patients with sustained testosterone suppression over the course of the observed time period: > 95%
Serum testosterone [2]; 360/60 mg
  coverage probability (confidence of true suppression rate being greater than 90%): 39.7%
Serum testosterone [2]; 360/60 mg, Day 28
  proportion of patients with testosterone ≦0.5 ng/mL: 98.5%
Serum testosterone [2]; 360/60 mg, Day 56
  proportion of patients with testosterone ≦0.5 ng/mL: 100%
Serum testosterone [2]; 360/60 mg, Day 84
  proportion of patients with testosterone ≦0.5 ng/mL: 100%
Serum testosterone [2]; 360/60 mg, Day 112
  proportion of patients with testosterone ≦0.5 ng/mL: 96.8%
Serum testosterone [2]; 360/60 mg, Day 140
  proportion of patients with testosterone ≦0.5 ng/mL: 100%
Serum testosterone [2]; 360/60 mg, Day 168
  proportion of patients with testosterone ≦0.5 ng/mL: 98.4%
Serum testosterone [2]; 360/60 mg, Day 196 (before re-dosing at Month 7)
  proportion of patients with testosterone ≦0.5 ng/mL: 90.6%
Serum testosterone [2]; 360/60 mg, Day 196 (before re-dosing at Month 7), listed as degarelix
  proportion of patients with testosterone ≦0.5 ng/mL: 90.6%
Serum testosterone [2]; 360/60 mg, Day 224
  proportion of patients with testosterone ≦0.5 ng/mL: 98.4%
Serum testosterone [2]; 360/60 mg, Day 252
  proportion of patients with testosterone ≦0.5 ng/mL: 98.4%
Serum testosterone [2]; 360/60 mg, Day 280 (before re-dosing at Month 10)
  proportion of patients with testosterone ≦0.5 ng/mL: 93.3%
Serum testosterone [2]; 360/60 mg, Day 280 (before re-dosing at Month 10), listed as degarelix
  proportion of patients with testosterone ≦0.5 ng/mL: 93.3%
Serum testosterone [2]; 360/60 mg, Day 308
  proportion of patients with testosterone ≦0.5 ng/mL: 100%
Serum testosterone [2]; 360/60 mg, Day 336
  proportion of patients with testosterone ≦0.5 ng/mL: 96.7%
Serum testosterone [2]; 360/60 mg, Day 364
  proportion of patients with testosterone ≦0.5 ng/mL: 95.0%
Serum testosterone [2]; 360/60 mg, N=67
  number of patients with testosterone > 0.5 ng/mL: 7
Serum testosterone [2]; 360/60 mg, listed as degarelix
  coverage probability (confidence of true suppression rate being greater than 90%): 39.7%
Serum testosterone [2]; 480/60 mg
  coverage probability (confidence of true suppression rate being greater than 90%): 79.9%
Serum testosterone [2]; 480/60 mg, Day 28
  proportion of patients with testosterone ≦0.5 ng/mL: 98.4%
Serum testosterone [2]; 480/60 mg, Day 56
  proportion of patients with testosterone ≦0.5 ng/mL: 98.4%
Serum testosterone [2]; 480/60 mg, Day 84
  proportion of patients with testosterone ≦0.5 ng/mL: 98.4%
Serum testosterone [2]; 480/60 mg, Day 112
  proportion of patients with testosterone ≦0.5 ng/mL: 96.7%
Serum testosterone [2]; 480/60 mg, Day 140
  proportion of patients with testosterone ≦0.5 ng/mL: 98.3%
Serum testosterone [2]; 480/60 mg, Day 168
  proportion of patients with testosterone ≦0.5 ng/mL: 98.3%
Serum testosterone [2]; 480/60 mg, Day 196
  proportion of patients with testosterone ≦0.5 ng/mL: 98.3%
Serum testosterone [2]; 480/60 mg, Day 224
  proportion of patients with testosterone ≦0.5 ng/mL: 98.3%
Serum testosterone [2]; 480/60 mg, Day 252
  proportion of patients with testosterone ≦0.5 ng/mL: 100%
Serum testosterone [2]; 480/60 mg, Day 280
  proportion of patients with testosterone ≦0.5 ng/mL: 98.2%
Serum testosterone [2]; 480/60 mg, Day 308
  proportion of patients with testosterone ≦0.5 ng/mL: 100%
Serum testosterone [2]; 480/60 mg, Day 336
  proportion of patients with testosterone ≦0.5 ng/mL: 100%
Serum testosterone [2]; 480/60 mg, Day 364
  proportion of patients with testosterone ≦0.5 ng/mL: 96.3%
Serum testosterone [2]; 480/60 mg, N=66
  number of patients with testosterone > 0.5 ng/mL: 4
Serum testosterone [2]; 480/60 mg, listed as degarelix
  coverage probability (confidence of true suppression rate being greater than 90%): 79.9%
Serum testosterone [2]; Total (480 mg and 360 mg arms)
  cumulative probability of testosterone ≦0.5 ng/mL, Kaplan-Meier estimate: 92.8%
Serum testosterone [2]; Total (both arms, after 240 mg starting dose), Day 28
  proportion of patients with testosterone ≦0.5 ng/mL: 98.4%
Serum testosterone [2]; Total (both arms, after 240 mg starting dose), Day 28, listed as degarelix
  proportion of patients with testosterone ≦0.5 ng/mL: 98%
Serum testosterone [2]; Total, N=133
  number of patients with testosterone > 0.5 ng/mL: 11
PSA; Day 28
  PSA, Median % Change from Baseline: −83.8%
PSA; Day 56
  PSA, Median % Change from Baseline: −93.8%
